For assay [1], the target named is T1, HDM2 (Homo sapiens, UniProt Q00987). In words: Fluorescent polarization assay (FAM-labeled p53 peptide ligand competition). Type of assay: binding. Particulars: 10 nM HDM2 protein, 1 nM FAM-labeled p53 peptide ligand, PBS buffer; for Ki: non-linear regression.
Assay [2] concerns the target T1, HDM2. In words: TdF assay (thermal melting with Sypro Orange). Particulars: 6 uM HDM2, 10 mM HEPES pH 7.4, 150 mM NaCl, 1 mM DTT, 10 and 20 uM compound. In kind it is binding.

Structures are written as SMILES. A value given as a limit tells only on which side of the number the result lay.

T1 sequence (Q00987 whole entry): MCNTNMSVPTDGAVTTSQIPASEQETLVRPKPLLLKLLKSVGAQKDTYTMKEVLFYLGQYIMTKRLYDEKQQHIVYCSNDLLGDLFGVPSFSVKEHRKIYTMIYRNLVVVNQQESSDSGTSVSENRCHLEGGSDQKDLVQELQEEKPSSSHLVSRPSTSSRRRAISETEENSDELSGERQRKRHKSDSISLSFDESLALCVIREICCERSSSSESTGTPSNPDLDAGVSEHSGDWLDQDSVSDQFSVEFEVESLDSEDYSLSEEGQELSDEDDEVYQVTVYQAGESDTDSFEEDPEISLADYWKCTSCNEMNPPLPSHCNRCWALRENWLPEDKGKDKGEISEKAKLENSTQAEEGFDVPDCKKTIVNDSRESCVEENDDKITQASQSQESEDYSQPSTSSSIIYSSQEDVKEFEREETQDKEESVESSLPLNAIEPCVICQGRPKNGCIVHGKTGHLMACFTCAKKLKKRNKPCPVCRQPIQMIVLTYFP

Consider `O=C(c1cnccc1C(F)(F)F)N1CCCC(Oc2ccc(C(F)(F)F)cc2)(C(=O)N2CCN(c3ccccn3)CC2)C1` (stereo not drawn) [Compound 1], for which, on HDM2 [1], the half-maximal inhibitory concentration (IC50) (commonly the concentration at which inhibition is half-maximal) is less than 5000 nM and the Ki (commonly a dissociation constant, usually derived from enzyme kinetics or from competition with a known ligand) was less than 2000 nM. Moreover, the Kd (commonly the concentration at which binding is half-saturated) on HDM2 [2] is less than 2000 nM.

Regarding `COCCOc1ccccc1N1CCN(C(=O)[C@]2(Oc3ccc(C(F)(F)F)cc3)CCCN(C(=O)c3cnccc3C(F)(F)F)[C@@H]2C(O)C(C)O)CC1` (stereo partly drawn) [Compound 4], on HDM2 [1], the IC50 was less than 5000 nM and the inhibition constant (Ki) was less than 2000 nM. The dissociation constant Kd on HDM2 [2] was less than 2000 nM.

Source of the values: patent US7888474B2, “HDM2 polypeptides” (Schering Corporation, priority 2007, dated 2011).
